Measurements published in ChEMBL document CHEMBL1125524, “Adenosine A1 antagonists. 2. Structure-activity relationships on diuretic activities and protective effects against acute renal failure” (J Med Chem, 1992).

Key:
Rattus norvegicus [1] = assay: Serum creatinine concentration measured after intraperitoneal administration of 10 mg/kg of compound to rats(vehicle 2.89+/-0.30); format: functional
Rattus norvegicus [2] = assay: Ratio of urinary excretion value (urinary volume) in treated rats to that in control rats, at a peroral dose of 12.5 mg/Kg; format: functional, Urine
Rattus norvegicus [3] = assay: Ratio of sodium ion/potassium ion concentration in treated rats to that in control rats, at a peroral dose of 12.5 mg/Kg; format: functional
Rattus norvegicus [4] = assay: Ratio of urinary excretion value (Na+ concentration) in treated rats to that in control rats, at a peroral dose of 12.5 mg/Kg; format: functional, Urine
Rattus norvegicus [5] = assay: Ratio of urinary excretion value (Na+ concentration) in treated rats to that in control rats, at a peroral dose of 6.25 mg/Kg; format: functional, Urine
Rattus norvegicus [6] = assay: Effect on urinary excretion potassium and sodium after oral administration of 12.5 mg/kg to rats(potassium and sodium excretion in control rat is 0.175+/-0.014); format: functional, Urine
Rattus norvegicus [7] = assay: Percent inhibition of serum creatinine by the compound given as ratio of Cr value in treated to vehicle treated ones after intraperitoneal administration of 10 mg/kg of compound to rats(vehicle 2.89+/-0.30); format: functional; settings: ip
Rattus norvegicus [8] = assay: Urea nitrogen concentration measured after intraperitoneal administration of 10 mg/kg of compound to rats(vehicle 93.6+/-8.6); format: functional
Rattus norvegicus [9] = assay: Oral diuretic activity was measured after oral administration of 12.5 mg/kg to rats(control volume is 0.94+/-0.03); format: functional, Urine
Rattus norvegicus [10] = assay: Percent inhibition of Urea nitrogen by the compound given as ratio of UN value in treated to vehicle treated ones after intraperitoneal administration of 10 mg/kg of compound to rats(vehicle 93.6+/-8.6); format: functional; settings: ip
Rattus norvegicus [11] = assay: Ratio of urinary excretion value (urinary volume) in treated rats to that in control rats, at a peroral dose of 6.25 mg/Kg; format: functional, Urine
Adenosine A2 receptor [12] = target: T1, Adenosine A2 receptor (Rattus norvegicus, UniProt P29276+P30543)
Description: Binding affinity towards adenosine A2 receptor in rat striatal membranes using N-[3H]-ethyladenosin-5''-uronamide as radioligand

Adenosine A2 receptor [13] = target: T1, Adenosine A2 receptor; remark: listed apart in the source
Rattus norvegicus [14] = assay: Serum creatinine concentration measured after intraperitoneal administration of 1 mg/kg of compound to rats(vehicle 3.62+/-0.52); format: functional
Rattus norvegicus [15] = assay: Serum creatinine concentration measured after intraperitoneal administration of 10 mg/kg of compound to rats(vehicle 3.93+/-0.45); format: functional
Rattus norvegicus [16] = assay: Effect on urinary excretion potassium and sodium after oral administration of 0.4 mg/kg to rats(potassium and sodium excretion in control rat is 0.191+/-0.020); format: functional, Urine
Rattus norvegicus [17] = assay: Percent inhibition of serum creatinine by the compound given as ratio of Cr value in treated to vehicle treated ones after intraperitoneal administration of 10 mg/kg of compound to rats(vehicle 3.93+/-0.45); format: functional; settings: ip
Rattus norvegicus [18] = assay: Ratio of urinary excretion value (urinary volume) in treated rats to that in control rats, at a peroral dose of 0.4 mg/Kg; format: functional, Urine
Rattus norvegicus [19] = assay: Ratio of urinary excretion value (urinary volume) in treated rats to that in control rats, at a peroral dose of 1.6 mg/Kg; format: functional, Urine
Rattus norvegicus [20] = assay: Percent inhibition of serum creatinine by the compound given as ratio of Cr value in treated to vehicle treated ones after intraperitoneal administration of 1 mg/kg of compound to rats(vehicle 3.62+/-0.52); format: functional; settings: ip
Rattus norvegicus [21] = assay: Ratio of sodium ion/potassium ion concentration in treated rats to that in control rats, at a peroral dose of 0.4 mg/Kg; format: functional
Rattus norvegicus [22] = assay: Ratio of sodium ion/potassium ion concentration in treated rats to that in control rats, at a peroral dose of 1.6 mg/Kg; format: functional
Rattus norvegicus [23] = assay: Ratio of urinary excretion value (Na+ concentration) in treated rats to that in control rats, at a peroral dose of 0.4 mg/Kg; format: functional, Urine
Rattus norvegicus [24] = assay: Ratio of urinary excretion value (Na+ concentration) in treated rats to that in control rats, at a peroral dose of 1.6 mg/Kg; format: functional, Urine
Rattus norvegicus [25] = assay: Urea nitrogen concentration measured after intraperitoneal administration of 1 mg/kg of compound to rats(vehicle 105.2+/-14.9); format: functional
Rattus norvegicus [26] = assay: Oral diuretic activity was measured after oral administration of 0.4 mg/kg to rats(control volume is 1.15+/-0.17); format: functional, Urine
Rattus norvegicus [27] = assay: Oral diuretic activity was measured after oral administration of 1.6 mg/kg to rats(control volume is 0.96+/-0.09); format: functional, Urine
Rattus norvegicus [28] = assay: Urea nitrogen concentration measured after intraperitoneal administration of 10 mg/kg of compound to rats(vehicle 129.1+/-14.5); format: functional
Rattus norvegicus [29] = assay: Percent inhibition of Urea nitrogen by the compound given as ratio of UN value in treated to vehicle treated ones after intraperitoneal administration of 1 mg/kg of compound to rats(vehicle 105.2+/-14.9); format: functional; settings: ip
Rattus norvegicus [30] = assay: Percent inhibition of Urea nitrogen by the compound given as ratio of UN value in treated to vehicle treated ones after intraperitoneal administration of 10 mg/kg of compound to rats(vehicle 129.1+/-14.5); format: functional; settings: ip
Rattus norvegicus [31] = assay: Effect on urinary excretion potassium and sodium after oral administration of 1.6 mg/kg to rats(potassium and sodium excretion in control rat is 0.147+/-0.015); format: functional, Urine
Rattus norvegicus [32] = assay: Serum creatinine concentration measured after intraperitoneal administration of 10 mg/kg of compound to rats(vehicle 4.98+/-0.08); format: functional
Rattus norvegicus [33] = assay: Oral diuretic activity was measured after oral administration of 25 mg/kg to rats(control volume is 0.89+/-0.06); format: functional, Urine
Rattus norvegicus [34] = assay: Percent inhibition of serum creatinine by the compound given as ratio of Cr value in treated to vehicle treated ones after intraperitoneal administration of 10 mg/kg of compound to rats(vehicle 4.98+/-0.08); format: functional; settings: ip
Rattus norvegicus [35] = assay: Ratio of urinary excretion value (urinary volume) in treated rats to that in control rats, at a peroral dose of 25 mg/Kg; format: functional, Urine
Rattus norvegicus [36] = assay: Ratio of sodium ion/potassium ion concentration in treated rats to that in control rats, at a peroral dose of 25 mg/Kg; format: functional
Rattus norvegicus [37] = assay: Ratio of urinary excretion value (Na+ concentration) in treated rats to that in control rats, at a peroral dose of 25 mg/Kg; format: functional, Urine
Rattus norvegicus [38] = assay: Effect on urinary excretion potassium and sodium after oral administration of 25 mg/kg to rats(potassium and sodium excretion in control rat is […]+/-[…]); format: functional, Urine
Rattus norvegicus [39] = assay: Urea nitrogen concentration measured after intraperitoneal administration of 10 mg/kg of compound to rats(vehicle 150.7+/-3.4); format: functional
Rattus norvegicus [40] = assay: Percent inhibition of Urea nitrogen by the compound given as ratio of UN value in treated to vehicle treated ones after intraperitoneal administration of 10 mg/kg of compound to rats(vehicle 150.7+/-3.4); format: functional; settings: ip
Adenosine receptor A1 = target: T2, Adenosine receptor A1 (Cavia porcellus, UniProt P47745)
T2 sequence (P47745 whole entry): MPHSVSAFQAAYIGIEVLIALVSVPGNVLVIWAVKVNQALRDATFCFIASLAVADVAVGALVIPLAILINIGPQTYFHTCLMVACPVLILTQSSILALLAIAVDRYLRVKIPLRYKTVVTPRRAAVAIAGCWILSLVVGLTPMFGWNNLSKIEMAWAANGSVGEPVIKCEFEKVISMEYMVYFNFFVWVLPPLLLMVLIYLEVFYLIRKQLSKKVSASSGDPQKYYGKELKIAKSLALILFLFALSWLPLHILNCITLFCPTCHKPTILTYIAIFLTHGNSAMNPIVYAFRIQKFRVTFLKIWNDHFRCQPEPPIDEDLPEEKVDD
Description: Binding affinity against adenosine A1 receptor in guinea pig forebrain membranes using N6-[3H]cyclohexyladenosine as radioligand

Q: `CCCn1c(=O)c2nc(-c3ccc(S(=O)(=O)N(C)CCN(C)C)cc3)[nH]c2n(CCC)c1=O` was tested. Which Cr (Rattus norvegicus [1]) did it give?
A: 2.31 mg/dL

Q: What about the T/C (Rattus norvegicus [2]) of the same compound?
A: 1.64

Q: And the “Na+/K+” value (Rattus norvegicus [3])?
A: 1.56

Q: And the T/C (Rattus norvegicus [4])?
A: 1.78

Q: What about the T/C (Rattus norvegicus [5]) of the same compound?
A: 1.06

Q: And the Na (Rattus norvegicus [6])?
A: 0.21 m equiv 6hr-1 100g-1

Q: And the inhibition in vivo at 10 mg/kg (Rattus norvegicus [7])?
A: 20%

Q: What about the UN (Rattus norvegicus [8]) of the same compound?
A: 62.6 mg/dL

Q: And the Urine volume (Rattus norvegicus [9])?
A: 1.54 ml 6hr-1 100g-1

Q: And the inhibition in vivo at 10 mg/kg (Rattus norvegicus [10])?
A: 33%

Q: And the T/C (Rattus norvegicus [11])?
A: 1.17

Q: And the Ki (Adenosine A2 receptor [12])?
A: 15.5 nM

Q: And the Ki (Adenosine A2 receptor [13])?
A: 26 nM

Q: Which results are given for `CCCCn1c(=O)c2nc(C(C3CC3)C3CC3)[nH]c2n(CCCC)c1=O`?
A: Cr (Rattus norvegicus [14]): 3.63 mg/dL; Cr (Rattus norvegicus [15]): 2.3 mg/dL; Na (Rattus norvegicus [16]): 0.276 m equiv 6hr-1 100g-1; inhibition in vivo at 10 mg/kg (Rattus norvegicus [17]): 41%; T/C (Rattus norvegicus [18]): 1.08; T/C (Rattus norvegicus [19]): 1.66; inhibition in vivo at 1 mg/kg (Rattus norvegicus [20]): 0%; Na+/K+ (Rattus norvegicus [21]): 1.45; Na+/K+ (Rattus norvegicus [22]): 1.66; T/C (Rattus norvegicus [23]): 1.44; T/C (Rattus norvegicus [24]): 1.91; UN (Rattus norvegicus [25]): 101.1 mg/dL; Urine volume (Rattus norvegicus [26]): 1.24 ml 6hr-1 100g-1; Urine volume (Rattus norvegicus [27]): 1.59 ml 6hr-1 100g-1; UN (Rattus norvegicus [28]): 81.1 mg/dL; inhibition in vivo at 1 mg/kg (Rattus norvegicus [29]): 4%; inhibition in vivo at 10 mg/kg (Rattus norvegicus [30]): 37%; Na (Rattus norvegicus [31]): 0.282 m equiv 6hr-1 100g-1; Ki (Adenosine A2 receptor [13]): 440 nM

Q: Which results are given for `CCCn1c(=O)c2c(nc(C(C3CC3)C3CC3)n2CC(=O)O)n(CCC)c1=O`?
A: Cr (Rattus norvegicus [32]): 4.79 mg/dL; Urine volume (Rattus norvegicus [33]): 1.02 ml 6hr-1 100g-1; inhibition in vivo at 10 mg/kg (Rattus norvegicus [34]): 4%; T/C (Rattus norvegicus [35]): 1.15; Na+/K+ (Rattus norvegicus [36]): 0.95; T/C (Rattus norvegicus [37]): 1.14; Na (Rattus norvegicus [38]): 0.185 m equiv 6hr-1 100g-1; UN (Rattus norvegicus [39]): 145.5 mg/dL; inhibition in vivo at 10 mg/kg (Rattus norvegicus [40]): 3%; Ki (Adenosine receptor A1): 6900 nM; Ki (Adenosine A2 receptor [13]): > 100000 nM

Q: How did the T/C (Rattus norvegicus [35]) turn out when `Nc1nc2ccc(Cl)cc2c2nc(-c3ccco3)nn12` [CGS-15943] was run?
A: 1.02

Q: And the “Na+/K+” value (Rattus norvegicus [36])?
A: 1.07

Q: And the T/C (Rattus norvegicus [37])?
A: 1.46

Q: What about the Ki (Adenosine A2 receptor [12]) of the same compound?
A: 3.3 nM

Q: What about the Ki (Adenosine A2 receptor [13]) of the same compound?
A: 0.73 nM
